Measurements as given in patent EP1574213B1, “Use of histone deacetylase inhibitors for increasing therapeutic gain in radiotherapy and chemotherapy” (Asan Laboratories Company (Cayman), Limited, priority 2004, dated 2005).

Assays:
irradiated skin = assay: Radiation-induced skin reaction after 40Gy, gross skin score and H&E histology; assay type: in vivo, Sprague Dawley (SD) rats; settings: for radiation-induced skin damage including acute dermatitis and desquamation, and late fibrosis, ulceration and necrosis: in words
Experimental: Adult female Sprague Dawley (SD) rats were purchased from the animal center of the National Science Council of Taiwan, and weighed 250-300g at the time of irradiation. Each rat was caged alone and allowed chow and water. They were anesthetized with pentobarbital 50mg/kg i.p. before irradiation. The skin over gluteal area was shaved completely and radiation fields with 2-cm diameter were outlined with a marking pen just prior to irradiation. An electron beam with 6MeV energy produced by a linear accelerator was used. The dose was delivered on Day 0 at 4Gy/min up to 40Gy to the prepared area. Each group treated with a histone deacetylase inhibitor was further divided into three subgroups animals (5 each) : one subgroup treated with skin irradiation followed by vehicle, another with skin irradiation followed by a histone deacetylase inhibitor, and the third with skin irradiation only. Then vaseline (negative control), madecassol ointment (positive control), or either vehicles or the 1% phenylbutyrate cream, 1% valproic acid cream, or 0.1% trichostatin A ointment were applied topically to the irradiated skin twice daily from Day 1 to Day 90 after irradiation. The mean dosage for each treatment in the respective groups was 16mg vaseline per cm^2 skin, 16mg madecassol per cm^2 skin, 50mg phenylbutyrate per cm^2 skin, 50mg valproic acid per cm^2 skin, 5mg trichostatin A per cm^2 skin, and an equivalent amount of the vehicle base for the control groups. The gross skin reactions were evaluated in all rats. Acute skin reactions were evaluated and scored every other day until the 90th day after irradiation using the modified skin score system (Abe Y. and Urano M. Fraction size-dependent acute skin reaction of mice after multiple twice-a-day doses. International Journal of Radiation Oncology, Biology, Physics. 18(2):359-64, 1990): 0=normal, 0.5=slight epilation, 1.0=epilation in about 50% of the radiated area, 1.5=epilation in greater than 50% of the area, 2.0=complete epilation, 2.5=complete epilation with definitive edema or dry desquamation in more than 50% of the area, 3.0=moist desquamation in a small area, 3.5=moist desquamation in most of the area.
The skin score increases with more severe skin reaction. On Day 11, the skin reactions in the groups treated with madecassol (positive control) or histone deacetylase inhibitors were less marked than those in the negative or vehicle control groups. By day 21, the epilation in the negative or vehicle groups had progressed to wet desquamation in most areas whereas in the madecassol or histone deacetylase inhibitor groups, it improved, and epithelium healing had begun quickly. […]

[1] = test system: TGF-β1, TGF-β2, and TNF-α; assay: Cytokine mRNA in irradiated skin (RNase protection assay, northern blot); assay type: in vivo, rats; settings: for radiation-induced TGF-β1, TGF-β2, and TNF-α expression: northern blot, irradiated skin
Experimental: (§1) The timing of the peak appearance of TGF-β1, TGF-β2, and TNF-α expression levels induced by radiation correlated with the beginning of development of radiation-induced damage (FIG. 4). Levels of TGF-β1, TGF-β2, TGF-β3, and TNF-α mRNA were assessed using a multiple cytokine RNase protection assay kit (Riboquant; Pharmingen, San Diego, CA) that contained a template set to allow for the generation of a 32P-labeled antisense RNA probe set that hybridized with the target mRNA for TGF-β1, TGF-β2, TGF-β3, TNF-α, and internal control GAPDH. After hybridization of labeled probe to target RNA, unprotected RNA was digested by a ribonuclease (RNase), and protected RNA fragments were resolved on a 6% polyacrylamide gel and recorded by phosphorimaging (Molecular Dynamics Corp., Sunnyvale, CA). Densitometry was used to quantify the amount of each mRNA species and was normalized to the internal control GAPDH.
The means of skin scores for skin reactions from five rats in each group were calculated. The average levels of cytokine/growth factor mRNA from three skin samples in each group were normalized to the internal control GAPDH and expressed as a ratio to the average level in time-matched control groups. The Mann-Whitney test (Stata Statistical Software, College Station, TX) was used to determine statistical significance at the p < 0.05 level for differences in average skin scores and in average mRNA levels, respectively, between treated and control rats.
Total RNA was isolated from frozen skin samples using Trigent (Molecular Research Center Inc., Cincinnati, OH). Total RNA (30 µg) was electrophoresed in a denaturing formaldehyde-agarose gel, blotted onto Hybond N (Amersham, Amersham, UK), and fixed by ultraviolet (UV) irradiation. The membrane was incubated with 32P-labeled probes, as described below, in Rapid-hyb buffer (Amersham). […]

TGF-β3 = TGF-β3 mRNA in irradiated skin (RNase protection assay); assay type: in vivo, rats; settings: Vaseline, vehicle, or PB
Experimental: as §1
The means of skin scores for skin reactions from five rats in each group were calculated. The average levels of cytokine/growth factor mRNA from three skin samples in each group were normalized to the internal control GAPDH and expressed as a ratio to the average level in time-matched control groups. […]

TGF-beta protein = assay: Immunofluorescence with anti-TGF-beta1, 2 antibodies in irradiated skin; assay type: in vivo, rats; settings: Day 180
Source text: The same pathological sections in example 4 were subjected to immunofluorescence with the anti-TGF-beta1, 2 antibodies.

TNF-α = assay: Immunohistochemistry of TNF-alpha in irradiated skin; assay type: in vivo, rats; settings: Day 270
Source text: The decrease in late radiation-induced skin damage by topical PB was consistent with the suppression of TNF-α expression (FIG. 6).

radiation-induced tumors = assay: Late radiation-induced skin tumor formation; assay type: in vivo, rats; settings: 90 weeks, irradiated groups
Source text: The decrease of TGF-β expression caused by PB treatment might decrease the incidence of late radiation-induced tumorigenesis. […] The histology of radiation-induced tumors included fibroma, spindle cell sarcoma, basal cell carcinoma, and squamous cell carcinoma.

1MEA7R.1 = assay: Cutaneous tumor growth, topical treatment, 1MEA7R.1; assay type: in vivo, BALB/c mice; settings: 4 weeks; 200 mg/mouse twice per day topically
Experimental: (§2) The syngeneic carcinoma cells 1MEA7R.1 and CT-26 (purchased from American Type Culture Collection, Manassas, VA) were subcutaneously injected into the flank areas of female BALB/c mice. The tumor was allowed to a maximum dimension of 0.5 cm. Topical HDAC inhibitors or vehicle was applied at a dose of 200 mg/mouse to cover the whole tumor surface and surrounding skin twice per day for 4 weeks. The tumor size was calculated weekly with a caliper according to the formula ab2/2, where a and b are the larger and smaller diameters (in centimeters), respectively.
(§3) The topical PB formulation was show to have antitumor effects. […] Cutaneous tumors were allowed to grow to the largest dimension 0. 5 cm (FIG. 8D), and PB was topically applied to the tumor surface at 200 mg/mouse twice per day. By 4 weeks, the tumor sizes of 1MEA7R.1 and CT-26 carcinomas in the placebo groups were almost 6- and 1.6-fold larger than those in the PB-treated groups, respectively (FIGS. 8B-8C).

CT-26 = assay: Cutaneous tumor growth, topical treatment, CT-26; assay type: in vivo, BALB/c mice; settings: 4 weeks; 200 mg/mouse twice per day topically
Experimental: as §2, §3

[2] = test system: syngeneic carcinoma cells 1MEA7R.1 and CT-26; assay: Direct antitumor effect on cutaneous tumor growth (both tumors, summary); assay type: in vivo, BALB/c mice; settings: withdrawal after 5 weeks of treatment
Experimental: as §2, with “Topical HDAC inhibitors or vehicle was applied at a dose of 200 mg/mouse to cover the whole tumor surface and surrounding skin twice per day for 4 weeks.” left out
as §3
The histological findings on skin specimens from 5 irradiated rats in each group are represented as follows: A, subepithelial swelling. B, dry desquamation in more than 50% of the area. C, wet desquamation in more than 50% of the area. D, atrophy of epidermis in most areas. E, atrophy of skin appendages in most areas. F, increased thickness of epithelium with more cell layers. G, increased collagen deposition, more vessel density, and increased thickness of dermis. H, chronic ulceration, necrosis, bullae formation, and more inflammatory cell infiltrate. […]

p21Cip1 = p21Cip1 protein level in carcinoma cells in vitro; assay type: cell-based; settings: BNL 1MEA7R.1 and CT-26 carcinoma cells; 4 mM PB
[3] = test system: CNE2 nasopharyngeal carcinoma cells; assay: Tumor radiosensitization, colony formation; assay type: cell-based; settings: for Radiation enhancement ratio (RER): 60 minutes prior to radiation, at 10% survival
Experimental: Radiation enhancement ratio (RER) is used to calculate the ratio of radiation doses that give the same effect. RER= (Radiation dose without drug treatment at 10% survival fraction)/(Radiation dose with drug treatment at 10% survival fraction).
Valproic acid (0.1 mM or 0.5 mM) was added in CNE2 nasopharyngeal carcinoma cells 60 minutes prior to radiation with radiation dose from 2 to 16 Gy, then washed out. After one week, colonies containing more than 50 cells were counted.

EBV thymidine kinase = EBV thymidine kinase activity assay; assay type: cell-based, Epstein-Barr virus (EBV); settings: 1 nM for 48 hours; EBV-positive Daudi cells
Experimental: For EBV thimidine kinase activity assay, an equal amount of cytosol fraction was incubated with reaction buffer (50mM Tris-HCl pH 7.4, 1mg/ml BSA, 3mM creatine phosphate, 11.2U/ml creatine phosphokinase, 0.1µm [3H-8]-GCV (specific activity 13.5 Ci/mmol), 2.5mM ATP, 2.5mM MgCl2, 10mM NaF, 10mM DTT) at 37°C for 30 mins. The reaction mixtures were added on WhatmanR DE-81 ion exchange chromatography papers, which were then washed with 1.5mM NH4COOH three times to remove unphosphorylated form of [3H-8]-GCV. After air dry, these papers were incubated with liquid scintillation cocktail overnight. The phosphorylation form of [3H-8]-GCV bound on WhatmanR DE-81 ion exchange chromatography paper was measured by LS6500 scintillation counter (Beckman).
The combination of TSA, GCV and radiation produced selectively maximal death in EBV-positive cells but not in EBV-negative cells (FIG. 11B). Daudi cells (EBV+) and HL-60 (EBV-) were treated with ganciclovir (GCV) (10 µg/ml) and /or trichostatin A (TSA) (1 nM) for 48 hours, then radiated with or without 1 Gy radiation (RT). Viable cells were counted 1 week later.

SMILES | rats showing chronic ulceration, necrosis, bullae formation, and inflammatory cell infiltration (irradiated skin; Day 270) | radiation-induced skin damage including acute dermatitis and desquamation, and late fibrosis, ulceration and necrosis (irradiated skin) | mRNA levels of TGF-β1, TGF-β2, and TNF-α ([1]; Day 28-35 after irradiation) | differences in TGF-β3 mRNA levels between irradiated groups (TGF-β3) | expression of TGF-beta (TGF-beta protein) | TNF-α expression (TNF-α) | cumulative tumor incident (radiation-induced tumors) [%] | tumor size in the placebo group relative to the PB-treated group (1MEA7R.1) [fold] | tumor size in the placebo group relative to the PB-treated group (CT-26) [fold] | time to reach the same size as control or placebo tumors after withdrawal [2] [weeks] | p21Cip1 (p21Cip1) | plating efficiency ([3]; versus control) | radiation-induced TGF-β1, TGF-β2, and TNF-α expression [1] | EBV thymidine kinase activity (EBV thymidine kinase) | Radiation enhancement ratio (RER) ([3]; 0.1 mM) | Radiation enhancement ratio (RER) ([3]; 0.5 mM)
O=C(O)CCCc1ccccc1 [PB, Phenylbutyrate] | zero of five | suppressing | returned to the non-irradiated control levels | No significant differences | suppressed effectively | suppression | 0 | ~6 | ~1.6 | ≤ 2 | up-regulation | the same |  |  |  | 
CC(/C=C/C(=O)NO)=C\[C@@H](C)C(=O)c1ccc(N(C)C)cc1 [TSA, Trichostatin A] |  | suppressing |  |  |  |  |  |  |  |  |  |  | decreased | up-regulated |  | 
CCCC(CCC)C(=O)O [Valproic acid] |  | suppressing |  |  |  |  |  |  |  |  |  |  | decreased |  | 1.2 | 1.7
